pIC50: −log10 of the molar value.

Assay [1] relates to PC-3 cells. Put plainly: FACScan flow cytometric analysis of cell cycle. Type of assay: cell-based, human. The settings on record: 1 μM, 3 μM, and 10 μM, 0 hr to 48 hrs. The procedure: PC-3 cells were treated with Compound 55 (at different concentrations: 1 μM, 3 μM, and 10 μM) for 0 hr, 6 hrs, 12 hrs, 18 hrs, 24 hrs, 36 hrs, and 48 hrs. After treatment, cells were washed twice with ice-cold PBS, collected by centrifugation and fixed in 70% (v/v) ethanol at 4° C. for 30 min. Then, cells were treated with 0.2 ml of a buffer (containing 0.2 M Na2HPO4 and 0.1 M citric acid buffer, pH 7.8) for 30 min, centrifuged, and then incubated in 1 mL propidium iodide (PI) staining buffer (0.1% Triton X-100, 100 μg/mL RNase A, 80 μg/mL propidium iodide in PBS) at 37° C. for 30 min. Cells were detected using a cytofluorometer, and analyzed by FACScan and CellQuest program (Becton Dickinson).
On the technique in general: A flow cytometer gives signals particle by particle.

Assay [2] has as its system PC-3 cells. Description: Western blot analysis of cell-cycle regulators. Format: cell-based, human. The settings on record: 10 μM. The procedure: (§1) PC-3 cells were incubated with a vehicle (0.1% DMSO) as control or Coumpound 55 (10 μM) for 30 min, 45 min, 60 min, and 120 min for testing Ras; or for 6 hrs, 12 hrs, 18 hrs, and 24 hrs for testing Raf-1, Phospho-MEK, MEK, and GAPDH. After the treatment, cells were washed twice with ice-cold PBS and then lysed with 100 μL lysis buffer (20 mM Tris, pH 7.5, 1 mM MgCl2, 125 mM NaCl, 1% Triton X-100, 1 mM phenylmethylsulphonylfluoride, 10 μg/mL leupeptin, 10 μg/mL aprotinin, 25 mM β-glycerophosphate, 50 mM NaF, and 100 μM sodium orthovanadate). Then, the expressions of the above proteins were detected by Western blotting.
The cell-cycle regulators were also examined by Western blot analysis. Proteins in the lysis (40 μg) were separated by electrophoresis in a 10 or 15% polyacrylamide gel, transferred to a nitrocellulose membrane and immuno-reacted with respective antibodies against Cyclin E, Cyclin A, Cyclin B1, Cdk1, Cdk2, p27, MPM2, and GAPDH.
For orientation: A western blot detects proteins with antibodies after separation by electrophoresis.

Assay [3] has as its system hepatocellular carcinoma HepG2 cells. Description: SRB assay, HepG2 cells. The settings on record: Homo sapiens, SRB growth inhibition, 48 hrs or 72 hrs. Format: cell-based. The procedure: (§2) NCI/ADR-RES cell line was obtained from DTP Human Tumor Cell Line Screen (Developmental Therapeutics Program, NCI). Other cancer cell lines (A549, Hep G2, Hep 3B, DU-145, LNCaP, and PC-3) were obtained from American Type Culture Collection (Rockville, Md.). These cancer cells were cultured in RPMI1640 medium with 10% (v/v) fetal bovine serum (FBS) and penicillin (100 units/mL)/streptomycin (100 μg/mL). Cultures were maintained in a humidified incubator at 37° C. in 5% CO2/95% air.
(§3) Cells were seeded in 96-well plates in medium with 5% FBS for 24 hrs. They were then further incubated with a vehicle (0.1% DMSO) as control or a test compound for 48 hrs or 72 hrs. The control- or compound-treated cells were fixed with 10% TCA and stained with SRB at 0.4% (w/v) in 1% acetic acid. Unbound SRB was washed off by 1% acetic acid and SRB-bound cells were solubilized with 10 mM Trizma base.
(§4) Using an absorbance (515 nm) measurement, the amounts of cellular proteins indicating cell numbers at time zero (T0), in control (C), and in the presence of the test compound (Tx) were obtained. The percentage growth was calculated at each of the compound concentration levels. Percentage growth inhibition was calculated as: 100−[(Tx−T0)/(C−T0)]×100. […]
(In general: Sulforhodamine B stains cellular protein and so reports cell mass.)

Assay [4] has as its system PC-3 cells. Put plainly: Western blot of Bcl-2 family proteins, caspases and PARP. Format: cell-based, human. The settings on record: 10 μM, 0 hr to 36 hrs. The procedure:
Effect of benzimidazole compounds on inducing apoptosis was evaluated by testing their effect on the expression/activation of Bcl-2 family member proteins, caspases, and c-Jun N-terminal kinase (JNK). Bcl-2 family of proteins is the most important regulators of mitochondria-involved apoptotic cell death. The pro-apoptotic members, Bax, Bak and Bad, are required for the disruption of mitochondria; whereas the anti-apoptotic Bcl-2, Bcl-xL and Mcl-1 can prevent apoptosis by antagonizing the pro-apoptotic members.
PC-3 cells were incubated with a vehicle (0.1% DMSO) or Compound 55 (10 μM) for 0 hr, 6 hrs, 12 hrs, 18 hrs, 24 hrs, and 36 hrs. Then, the cells were harvested and lysed for the detection of protein expression with specific antibodies by western blot analysis. For Western blotting, the proteins (40 μg) in the lysis (including Phospho-Bcl-2, Bcl-2, Phospho-Bcl-xL, Bcl-xL, Mcl-1, Bax, Bak, Bad, GAPDH, cleaved Bad, Caspase-9, cleaved Caspase-9, Caspase-3, cleaved Caspase-3, poly-(ADP-ribose) polymerase (PARP), cleaved PARP, and GAPDH) were separated by electrophoresis in a 10 to 15% polyacrylamide gel, transferred to a nitrocellulose membrane and immuno-reacted with specific antibodies.

Assay [5] has as its system human non-small cell lung cancer A549 cells. Put plainly: SRB assay, A549 cells. Format: cell-based. The settings on record: SRB growth inhibition, 48 hrs or 72 hrs. The procedure:
as §2, §3, §4

The subject of assay [6] is P-glycoprotein (P-gp)-rich breast cancer NCI/ADR-RES cells. Put plainly: SRB assay, NCI/ADR-RES cells. The settings on record: Homo sapiens, SRB growth inhibition, 48 hrs or 72 hrs. Format: cell-based. The procedure: as §2, §3, §4
The subject of assay [7] is hepatocellular carcinoma Hep3B cells. Put plainly: SRB assay, Hep3B cells. Type of assay: cell-based. The settings on record: Homo sapiens, SRB growth inhibition, 48 hrs or 72 hrs. The procedure: as §2, §3, §4
A further assay concerns Tubulin proteins. Put plainly: In vitro tubulin turbidity assay. Type of assay: biochemical. The settings on record: 37° C., 60 min. The procedure: Effects of the benzimidazole compounds on tubulin polymerization were detected using CytoDYNAMIX Screen 03 kit (Cytoskeleton, Inc., Denver, Colo.).
Tubulin proteins (>99% purity) were suspended in G-PEM buffer containing 80 mM PIPES, 2 mM MgCl2, 0.5 mM EDTA, and 1.0 mM GTP (pH 6.9) and 5% glycerol with or without a test compound. Then, the mixture was transferred to a 96-well plate and the absorbance was measured at 340 nm (37° C.) for 60 min (SpectraMAX Plus, Molecular Devices Inc., Sunnyvale, Calif.).
Level of tubulin polymerization was determined by examining turbidity of the tubulin suspension. Absorbance of the suspension at 340 nm was plotted as a function of time. Accordingly, the velocity and magnitude of tubulin polymerization were determined.

Assay [8] concerns PC-3 cells. Put plainly: In situ tubulin assay (immunofluorescence microscopy). The settings on record: 18 to 24 h. Format: cell-based, human. The procedure:
The organization and formation of microtubule were detected by immunofluorescence microscopic examination in PC-3 cells.
PC-3 cells were seeded in 8-well chamber slides and incubated with a vehicle (0.1% DMSO, control), Compound 55 (10 μM), taxol (0.1 μM), or vincristine (0.1 μM) for 18 to 24 h. Then, the cells were fixed with 100% methanol at −20° C. for 5 min and incubated in 1% bovine serum albumin (BSA) containing 0.1% Triton X-100 at 37° C. for 30 min. Cells were then washed twice with PBS for 5 min and stained with primary antibody specific to β-tubulin at 37° C. for 1 h. Afterwards, FITC-labeled secondary antibodies were used (staining performed at 37° C. for 40 min, green fluorescence) and the protein was detected using a confocal laser microscopic system (Leica TCS SP2). The nuclei were visible by DAPI staining (1 mg/mL DAPI, blue fluorescence).

For assay [9], the system named is prostate cancer PC-3 cells. Put plainly: SRB assay, PC-3 cells. Format: cell-based. The settings on record: Homo sapiens, SRB growth inhibition, 48 hrs or 72 hrs. The procedure: as §2, §3, §4
For another assay, the system named is LNCaP cells. Put plainly: SRB assay, LNCaP cells. Format: cell-based. The settings on record: Homo sapiens, SRB growth inhibition, 48 hrs or 72 hrs. The procedure: as §2, §3, §4
In a further assay the test system is DU-145 cells. Description: SRB assay, DU-145 cells. The settings on record: Homo sapiens, SRB growth inhibition, 48 hrs or 72 hrs. Format: cell-based. The procedure:
as §2, §3, §4

Assay [10] deals with PC-3 cells. Put plainly: Western blotting of Ras, Raf-1, MEK. Type of assay: cell-based, human. The settings on record: 10 μM. The procedure:
as §1

A word on the pIC50: it is the negative decadic logarithm of the IC50, by convention in mol/L. Low readings indicate a large IC50, high ones a small IC50. Take `COc1cc(Cn2c(-c3ccccc3)nc3cc(N4CCCC4)ccc32)cc(OC)c1OC` [Compound 55, 2-phenyl-5-(pyrrolidin-1-yl)-1-(3,4,5-trimethoxybenzyl)-1H-benzo[d]imidazole]: in the assay with PC-3 cells [1], the “cell population at G2/M phase” value is on record as “induced an increase” and the “hypodiploid (sub-G1, apoptosis) population of the cell cycle” value is on record as “subsequent increase”. Also, in the assay on PC-3 cells [2], the “cyclin A expression” value was “downregulated”, the “cyclin B1 expression” value is given as “upregulated”, the “cyclin E expression” value is given as “downregulated” and the “expression of p27 (a Cdk inhibitor)” value is “decreased”. Moreover, the pIC50 in assay [3] is 5.48. Further, in the assay with PC-3 cells [4], the “Bcl-2 phosphorylation and degradation” value is “induced the phosphorylation and degradation”; the “Bcl-xL phosphorylation and degradation” value is “induced the phosphorylation and degradation”; the Mcl-1 expression result was “decrease”; the PARP cleavage result was “cleaved to produce catalytically active fragments”. Further, in the assay on PC-3 cells [4], the caspase-3 cleavage entry is recorded as “cleaved to produce catalytically active fragments”, the caspase-9 cleavage entry is on record as “cleaved to produce catalytically active fragments” and the “cleavage of pro-apoptotic Bad” value is “cleavage of pro-apoptotic Bad into 15-kDa fragments was unexpectedly induced”. Further, in assay [5], the negative-log IC50 (pIC50) is 5.62. This compound also showed a pIC50 in assay [6] of 5.43. Further, the pIC50 in [7] was 5.62. In addition, in the assay on Tubulin proteins, the “tubulin polymerization (turbidity, absorbance at 340 nm)” value is on record as “inhibited tubulin polymerization in a dose-dependent manner”. Moreover, the “spindle and nuclei morphology (in situ labeling of tubulin and chromosomes)” value (“spindle and nuclei morphology” for short) with PC-3 cells [8] (10 μM) was “mono-polar”. Besides, in assay [9], the pIC50 was 5.64. For the same compound, the pIC50 in the assay on LNCaP cells is 5.77. In the assay on DU-145 cells, this compound gave a pIC50 of 5.64. Also, in the assay with PC-3 cells [10] (30 min to 120 min), the Ras expression entry is “upregulated”. In the assay with PC-3 cells [10] (6 hrs to 24 hrs), the MEK expression result was “upregulated” and the Raf-1 expression result is “upregulated”.

With `CC(=O)O[C@H]1C(=O)[C@@]2(C)[C@H]([C@H](OC(=O)c3ccccc3)[C@]3(O)C[C@H](OC(=O)[C@H](O)[C@@H](NC(=O)c4ccccc4)c4ccccc4)C(C)=C1C3(C)C)[C@]1(OC(C)=O)CO[C@@H]1C[C@@H]2O` [taxol], the “spindle and nuclei morphology” value in the assay on PC-3 cells [8] (0.1 μM) is “multi-polar spindles and multiple nuclei were formed”.

Take `CC[C@]1(O)C[C@H]2CN(CCc3c([nH]c4ccccc34)[C@@](C(=O)OC)(c3cc4c(cc3OC)N(C=O)[C@H]3[C@@](O)(C(=O)OC)[C@H](OC(C)=O)[C@]5(CC)C=CCN6CC[C@]43[C@@H]65)C2)C1` [vincristine]: the “spindle and nuclei morphology” value in the assay on PC-3 cells [8] (0.1 μM) was “multi-polar spindles and chromosome condensation were observed”.

These data come from patent US8501957B2, “Benzimidazole compounds and their use as anticancer agents” (China Medical University, priority 2008, dated 2013).
